In PubChem BioAssay (NCI):
Where “and” joins values, the source holds several entries; their conditions need not be identical. Equal entries are not always repeated.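 Growth conditions: 96-well plates. Treatment: test compound, 48 hours, 5 concentrations. Analysis: linear interpolation between bracketing concentrations; unreached endpoints set to highest concentration. GI50 is the concentration that inhibits growth by half. At the TGI there is no net growth.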

Tests used:
Assay in all cases: NCI-60 cell line screen, 48 h
CCRF-CEM leukemia = system: CCRF-CEM leukemia
SNB-19 CNS = system: SNB-19 CNS
MDA-MB-231 breast = system: MDA-MB-231 breast
NCI-H23 lung = system: NCI-H23 lung
HOP-62 NSCLC = system: HOP-62 NSCLC
MCF7 breast = system: MCF7 breast
TK-10 renal = system: TK-10 renal
OVCAR-3 ovarian = system: OVCAR-3 ovarian
PC-3 prostate = system: PC-3 prostate
KM12 colon = system: KM12 colon

| SMILES | GI50 (CCRF-CEM leukemia) | TGI (CCRF-CEM leukemia) | GI50 (SNB-19 CNS) | TGI (SNB-19 CNS) | GI50 (MDA-MB-231 breast) | TGI (MDA-MB-231 breast) | GI50 (NCI-H23 lung) | TGI (NCI-H23 lung) | GI50 (HOP-62 NSCLC) | TGI (HOP-62 NSCLC) | GI50 (MCF7 breast) | TGI (MCF7 breast) | GI50 (TK-10 renal) | TGI (TK-10 renal) | GI50 (OVCAR-3 ovarian) | TGI (OVCAR-3 ovarian) | GI50 (PC-3 prostate) | TGI (PC-3 prostate) | GI50 (KM12 colon) | TGI (KM12 colon) |
| --- | --- | --- | --- | --- | --- | --- | --- | --- | --- | --- | --- | --- | --- | --- | --- | --- | --- | --- | --- | --- |
| COc1ccncc1C#Cc1cncc(C(=O)Nc2ccc(CN3CCN(C)CC3)c(C(F)(F)F)c2)c1 | 28.4 µM | > 100 µM | 47 µM | > 100 µM | 7.71 µM | 85.4 µM | 16.3 µM | > 100 µM | 20.9 µM | > 100 µM | 11.1 µM | 94.6 µM | 47.1 µM | > 100 µM | 21.6 µM | 89.7 µM | 27.3 µM | > 100 µM | 0.326 µM | 64.5 µM |
| O=c1c2ccccc2sc2cccc(NCCCN3CCN(CCCNc4cccc5sc6ccccc6c(=O)c45)CC3)c12 | – | > 100 µM | – | > 100 µM | – | > 100 µM | – | > 100 µM | – | > 100 µM | – | > 100 µM | – | > 100 µM | – | > 100 µM | – | > 100 µM | – | > 100 µM |
| CC(=O)c1cc2c(o1)C(=O)c1ccccc1C2=O | 0.403 µM and 1.02 µM | > 100 µM | 0.222 µM and 0.267 µM | 0.508 µM and 0.795 µM | 0.765 µM and 1.66 µM | 4.29 µM and 6.88 µM | 0.19 µM and 0.153 µM | 0.535 µM and 0.458 µM | 0.163 µM and 0.186 µM | 0.329 µM and 0.35 µM | 0.167 µM and 0.171 µM | 0.394 µM | 0.248 µM and 1.4 µM | 0.595 µM and 2.9 µM | 0.218 µM and 0.225 µM | 0.507 µM and 0.529 µM | 0.713 µM and 0.825 µM | 2.81 µM and 4.48 µM | 0.543 µM and 0.713 µM | 1.62 µM and 2.09 µM |
| O=c1cc2oc3cc(O)c(O)cc3c(-c3ccccc3O)c-2cc1O | 7.29 µM | > 100 µM | 9.65 µM | > 100 µM | 10.2 µM | > 100 µM | 3.88 µM | 39.1 µM | 5.62 µM | > 100 µM | 18.4 µM | > 100 µM | 21.9 µM | > 100 µM | 9.41 µM | > 100 µM | 36.1 µM | > 100 µM | 30.7 µM | > 100 µM |
| Cn1cnc([N+](=O)[O-])c1S(=O)(=O)Oc1ccccc1 | 3.75 µM | > 100 µM | > 100 µM | > 100 µM | 15.5 µM | 47.9 µM | 15 µM | 37.9 µM | 19.3 µM | 39 µM | 7.82 µM | > 44.3 µM | 1.99 µM | 3.81 µM | 2.14 µM | 4.3 µM | 20.6 µM | 62 µM | 26.2 µM | > 78.4 µM |
| CC1(C)OCCn2c1nc1c(N3CCOCC3)nc(-c3cnc(N)nc3)nc12 | 1.06 µM | > 100 µM | 1.01 µM | > 30.2 µM | 0.457 µM | > 89.2 µM | 0.484 µM | > 100 µM | 0.477 µM | 6.56 µM | 0.077 µM | > 100 µM | 0.109 µM | 0.676 µM | 0.308 µM | > 31.5 µM | 0.318 µM | > 68.6 µM | 0.761 µM | > 100 µM |
